Source: the NIST ThermoML archive (doi:10.1021/je7002836)
Numbers after ± are expanded uncertainties.

Assays:
[1] = molar heat capacity at constant pressure; details: 101 kPa, Liquid
[2] = 101 kPa, Liquid
[3] = xn = mol fraction of the nth substance listed; details: 101 kPa, Liquid
[4] = molar heat capacity at constant pressure; xn = mol fraction of the nth substance listed; details: 101 kPa, Liquid

mass density ([3]; 308.15 K, x2 = 0) | molar heat capacity at constant pressure ([4]; 293.15 K, x2 = 0) | molar heat capacity at constant pressure ([4]; 298.15 K, x2 = 0) | molar heat capacity at constant pressure ([4]; 303.15 K, x2 = 0) | molar heat capacity at constant pressure ([4]; 308.15 K, x2 = 0) | molar heat capacity at constant pressure ([4]; 313.15 K, x2 = 0) | molar heat capacity at constant pressure ([4]; 318.15 K, x2 = 0) | SMILES | molar heat capacity at constant pressure ([1]; 293.15 K) | molar heat capacity at constant pressure ([1]; 298.15 K) | molar heat capacity at constant pressure ([1]; 303.15 K) | molar heat capacity at constant pressure ([1]; 308.15 K) | molar heat capacity at constant pressure ([1]; 313.15 K) | molar heat capacity at constant pressure ([1]; 318.15 K) | mass density ([2]; 293.15 K) | mass density ([2]; 298.15 K) | mass density ([2]; 303.15 K) | mass density ([2]; 308.15 K) | mass density ([2]; 313.15 K) | mass density ([2]; 318.15 K) | other results
776.7 ± 3.8 kg/m3 | 111.3 ± 3.4 J/K/mol | 113.3 ± 3.5 J/K/mol | 115.3 ± 3.6 J/K/mol | 117.5 ± 3.6 J/K/mol | 119.7 ± 3.7 J/K/mol | 122.1 ± 3.8 J/K/mol | CCO [ethanol] + CCCC[n+]1cccc(C)c1.F[B-](F)(F)F | – | – | – | – | – | – | – | – | – | – | – | – | mass density ([3]; 293.15 K, x2 = 0): 789.6 ± 3.7 kg/m3; mass density ([3]; 298.15 K, x2 = 0): 785.3 ± 3.7 kg/m3; mass density ([3]; 303.15 K, x2 = 0): 781 ± 3.8 kg/m3; mass density ([3]; 313.15 K, x2 = 0): 772.3 ± 3.9 kg/m3; mass density ([3]; 318.15 K, x2 = 0): 767.8 ± 3.9 kg/m3
994.1 ± 2.3 kg/m3 | 75.4 ± 2.3 J/K/mol | 75.3 ± 2.3 J/K/mol | 75.3 ± 2.3 J/K/mol | 75.2 ± 2.3 J/K/mol | 75.2 ± 2.3 J/K/mol | 75.3 ± 2.3 J/K/mol | O [water] + CCCC[n+]1cccc(C)c1.F[B-](F)(F)F | – | – | – | – | – | – | – | – | – | – | – | – | –

More lines, now with the values behind:

SMILES | mass density ([3]; 308.15 K, x2 = 0) | molar heat capacity at constant pressure ([4]; 293.15 K, x2 = 0) | molar heat capacity at constant pressure ([4]; 298.15 K, x2 = 0) | molar heat capacity at constant pressure ([4]; 303.15 K, x2 = 0) | molar heat capacity at constant pressure ([4]; 308.15 K, x2 = 0) | molar heat capacity at constant pressure ([4]; 313.15 K, x2 = 0) | molar heat capacity at constant pressure ([4]; 318.15 K, x2 = 0) | molar heat capacity at constant pressure ([1]; 293.15 K) | molar heat capacity at constant pressure ([1]; 298.15 K) | molar heat capacity at constant pressure ([1]; 303.15 K) | molar heat capacity at constant pressure ([1]; 308.15 K) | molar heat capacity at constant pressure ([1]; 313.15 K) | molar heat capacity at constant pressure ([1]; 318.15 K) | mass density ([2]; 293.15 K) | mass density ([2]; 298.15 K) | mass density ([2]; 303.15 K) | mass density ([2]; 308.15 K) | mass density ([2]; 313.15 K) | mass density ([2]; 318.15 K) | other results
CCCC[n+]1cccc(C)c1.F[B-](F)(F)F [1-butyl-3-methylpyridinium tetrafluoroborate] | – | – | – | – | – | – | – | 385.8 ± 12 J/K/mol | 387.7 ± 12 J/K/mol | 390.1 ± 12 J/K/mol | 392.8 ± 12 J/K/mol | 395.9 ± 12 J/K/mol | 399.3 ± 12 J/K/mol | 1188.6 ± 7 kg/m3 | 1185.2 ± 6.9 kg/m3 | 1181.7 ± 6.8 kg/m3 | 1178.3 ± 6.7 kg/m3 | 1174.9 ± 6.6 kg/m3 | 1171.6 ± 6.6 kg/m3 | –
CCCC[n+]1cccc(C)c1.F[B-](F)(F)F [1-butyl-3-methylpyridinium tetrafluoroborate] + C[N+](=O)[O-] | – | – | – | – | – | – | – | – | – | – | – | – | – | – | – | – | – | – | – | mass density ([3]; 293.15 K, x1 = 1): 1188.6 ± 3.6 kg/m3; mass density ([3]; 298.15 K, x1 = 1): 1185.2 ± 3.6 kg/m3; mass density ([3]; 303.15 K, x1 = 1): 1181.7 ± 3.5 kg/m3; mass density ([3]; 308.15 K, x1 = 1): 1178.3 ± 3.5 kg/m3; mass density ([3]; 313.15 K, x1 = 1): 1174.9 ± 3.5 kg/m3; mass density ([3]; 318.15 K, x1 = 1): 1171.6 ± 3.4 kg/m3; molar heat capacity at constant pressure ([4]; 293.15 K, x1 = 1): 385.8 ± 12 J/K/mol; molar heat capacity at constant pressure ([4]; 298.15 K, x1 = 1): 387.7 ± 12 J/K/mol; molar heat capacity at constant pressure ([4]; 303.15 K, x1 = 1): 390.1 ± 12 J/K/mol; molar heat capacity at constant pressure ([4]; 308.15 K, x1 = 1): 392.8 ± 12 J/K/mol; molar heat capacity at constant pressure ([4]; 313.15 K, x1 = 1): 395.9 ± 12 J/K/mol; molar heat capacity at constant pressure ([4]; 318.15 K, x1 = 1): 399.3 ± 12 J/K/mol
CCO [ethanol] | – | – | – | – | – | – | – | 111.3 ± 3.4 J/K/mol | 113.3 ± 3.5 J/K/mol | 115.3 ± 3.6 J/K/mol | 117.5 ± 3.6 J/K/mol | 119.7 ± 3.7 J/K/mol | 122.1 ± 3.8 J/K/mol | 789.6 ± 3.7 kg/m3 | 785.3 ± 3.7 kg/m3 | 781 ± 3.8 kg/m3 | 776.7 ± 3.8 kg/m3 | 772.3 ± 3.9 kg/m3 | 767.8 ± 3.9 kg/m3 | –
C[N+](=O)[O-] [nitromethane] | – | – | – | – | – | – | – | 106.6 ± 3.3 J/K/mol | 106.9 ± 3.3 J/K/mol | 107.3 ± 3.3 J/K/mol | 107.7 ± 3.3 J/K/mol | 108.2 ± 3.4 J/K/mol | 108.6 ± 3.4 J/K/mol | 1140.2 ± 3.3 kg/m3 | 1133.4 ± 3.2 kg/m3 | 1126.6 ± 3.1 kg/m3 | 1119.7 ± 3.1 kg/m3 | 1112.9 ± 3 kg/m3 | 1106 ± 2.9 kg/m3 | –
